Target: T1, GluD2-Lc-(HS2)GluN1 (Rattus norvegicus, UniProt Q63226, A654T/A766F/D767R/N763E/R768S/T764L/V761T/V765F)
T1 construct: the function of full-length receptors as well, we introduced them into the GluD2 lurcher mutant (GluD2-Lc); expressed in transfected cells; host or cells: Xenopus laevis oocytes injected with cRNA
T1 sequence (Q63226 24-1007 A654T/V761T/N763E/T764L/V765F/A766F/D767R/R768S): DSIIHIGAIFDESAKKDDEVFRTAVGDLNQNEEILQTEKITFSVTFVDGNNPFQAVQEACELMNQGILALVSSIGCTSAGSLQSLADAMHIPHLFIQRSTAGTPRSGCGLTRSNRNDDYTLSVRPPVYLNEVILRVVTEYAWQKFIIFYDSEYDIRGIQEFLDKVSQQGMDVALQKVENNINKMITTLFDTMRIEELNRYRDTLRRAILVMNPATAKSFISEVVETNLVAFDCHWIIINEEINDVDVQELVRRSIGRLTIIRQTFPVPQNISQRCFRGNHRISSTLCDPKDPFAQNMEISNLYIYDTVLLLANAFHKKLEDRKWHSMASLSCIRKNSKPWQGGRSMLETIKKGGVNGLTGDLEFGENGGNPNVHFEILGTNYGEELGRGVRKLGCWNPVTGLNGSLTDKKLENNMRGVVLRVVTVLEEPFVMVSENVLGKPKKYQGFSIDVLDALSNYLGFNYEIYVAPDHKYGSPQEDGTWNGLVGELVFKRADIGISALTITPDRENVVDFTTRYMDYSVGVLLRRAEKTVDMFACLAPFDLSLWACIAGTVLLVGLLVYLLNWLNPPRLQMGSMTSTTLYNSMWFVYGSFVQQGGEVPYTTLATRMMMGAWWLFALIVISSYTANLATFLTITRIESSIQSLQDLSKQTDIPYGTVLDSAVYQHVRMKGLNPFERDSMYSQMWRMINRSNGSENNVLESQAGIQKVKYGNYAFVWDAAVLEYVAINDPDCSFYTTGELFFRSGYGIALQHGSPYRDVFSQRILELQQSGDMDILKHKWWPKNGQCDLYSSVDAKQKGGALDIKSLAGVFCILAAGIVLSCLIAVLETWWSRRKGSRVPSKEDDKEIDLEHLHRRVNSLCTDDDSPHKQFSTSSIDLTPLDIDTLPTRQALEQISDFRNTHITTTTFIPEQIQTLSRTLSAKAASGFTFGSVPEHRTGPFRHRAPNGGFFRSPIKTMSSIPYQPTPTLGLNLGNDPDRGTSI
Test: Two-electrode voltage clamp in Xenopus oocytes, inhibition of spontaneous currents
Type: cell-based
Text: All cDNAs for expression in Xenopus oocytes were cloned into the vector pSGEM[30]. Point mutants of GluD2-Lc were constructed by overlap extension PCR with mutagenic oligonucleotide primers. The GluD2-Lc-(H)GluN1 chimera was constructed by transferring the S1- and S2-encoding sequences from GluD2-LBD-(H)GluN1 to GluD2-Lc via overlap extension PCR using tail primers. The S1 and S2 sequences were transferred separately, yielding GluD2-Lc-(HS1)GluN1 and GluD2-Lc-(HS2)GluN1 constructs. GluD2-Lc-(H)GluN1 was then produced from these by another overlap extension PCR. Complementary RNA (cRNA) for injection into oocytes was synthesised from 1 μg of linearised template DNA with the mMESSAGE mMACHINE in vitro transcription kit (Ambion, Austin, TX, USA).
Oocytes were obtained by surgically removing parts of the ovaries from Xenopus laevis (Nasco, Fort Atkinson, WI, USA) anaesthetised with 1.5 g/L 3-aminobenzoic acid ethylester (Sigma, Taufkirchen, Germany). The ovary clippings were digested with 784 U/mL (4 mg/mL) collagenase type I (Worthington, Lakewood, NJ, USA) in Ca^2+-free Barth’s solution (88 mM NaCl, 1.1 mM KCl, 2.4 mM NaHCO3, 0.8 mM MgSO4, 15 mM HEPES-NaOH, pH 7.6) with gentle agitation for 1.5–2 h at 20 °C to remove the follicular cell layer. After stopping the collagenase digestion by washing with Barth’s solution (88 mM NaCl, 1.1 mM KCl, 2.4 mM NaHCO3, 0.3 mM Ca(NO3)2, 0.4 mM CaCl2, 0.8 mM MgSO4, 15 mM HEPES-NaOH, pH 7.6), defolliculated oocytes of stages V and VI were selected and maintained at 16 °C in Barth’s solution supplemented with 100 μg/mL gentamicin, 40 μg/mL streptomycin, and 63 μg/mL penicillin. Oocytes were injected with 11 ng cRNA (10 ng of each cRNA for co-expression of GluN1 and GluN2A) using a nanoliter injector (WPI, Sarasota, FL, USA). Four days after cRNA injection, current responses were recorded under voltage clamp at –70 mV with a Turbo Tec-10CD amplifier (npi electronic, Tamm, Germany) controlled by Patchmaster software (HEKA, Lambrecht, Germany). Currents were filtered with a 20 Hz low-pass filter and then digitised with a sampling rate of 50 Hz. Recording electrodes were pulled from borosilicate glass (Hilgenberg, Malsfeld, Germany) with an L/M-3P-A vertical pipette puller (List-Medical), filled with 3 M KCl, and had resistances of 0.5–5 MΩ (voltage electrode) or 0.5–1.5 MΩ (current electrode). Recordings were performed in a 50 μL chamber under constant superfusion with extracellular solution at a flow rate of 3–5 mL/min. […] Finally, Ba-NFR and then NMDGR were applied again to check for reversibility.

N[C@H](CO)C(=O)O [D-serine]
D-serine efficacy Mean ± SEM (fraction of spontaneous current inhibited by D-serine): 0.9 ± 0.4%
sensitivity to D-serine (inhibition of spontaneous currents): insensitive

Reference: publication PMC5384001 (Scientific Reports, 2017)
